The record followed here is patent US5726200A, “Pro-drugs for CCK antagonists” (Warner-Lambert Company, priority 1996, dated 1998).

The structures appear in SMILES notation.

This experiment addresses T1, CCK-B receptor (Mus musculus, UniProt P56481).
T1 construct: from tissue; host or cells: cerebral cortex membranes of male CFLP mice
T1 sequence (P56481 1-453): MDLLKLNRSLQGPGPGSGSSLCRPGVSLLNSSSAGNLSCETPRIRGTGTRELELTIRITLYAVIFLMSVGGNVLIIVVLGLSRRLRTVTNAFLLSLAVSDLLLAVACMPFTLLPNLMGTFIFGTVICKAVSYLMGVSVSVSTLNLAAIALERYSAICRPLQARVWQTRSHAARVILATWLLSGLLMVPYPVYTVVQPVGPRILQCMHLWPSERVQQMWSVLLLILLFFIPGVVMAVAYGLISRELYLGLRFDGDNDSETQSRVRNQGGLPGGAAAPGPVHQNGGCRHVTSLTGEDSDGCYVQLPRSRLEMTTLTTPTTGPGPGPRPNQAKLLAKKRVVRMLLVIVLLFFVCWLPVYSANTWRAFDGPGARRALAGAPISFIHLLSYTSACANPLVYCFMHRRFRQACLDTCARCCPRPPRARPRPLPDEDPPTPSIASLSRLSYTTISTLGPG
Kind of experiment: Displacement of tritiated-pentagastrin binding to mouse cerebral cortical membranes. The arrangement: species or system mouse (male CFLP mice). Particulars: displacement of 2 nM tritiated-pentagastrin, n = number of assays, read-out: Receptor Affinity CCI-B (Ki). Here is the method:
The biological activity of compounds of the present invention was evaluated employing an initial screening test which rapidly and accurately measured the binding of the tested compound to known CCK receptor sites. […] (See Hays et al, Neuropeptides 1:53-62, 1980; and Satuer et al, Science 208:1155-1156, 1980).
In this screening test, the cerebral cortices taken from male CFLP mice weighing between 30-40 g were dissected on ice, weighed, and homogenized in 10 volumes of 50 mM Tris-HCl buffer (pH 7.4 at 0°-4° C.). The resulting suspension was centrifuged, the supernate was discarded, and the pellet was washed by resuspension in Tris-HCl buffer followed by recentrifugation. The final pellet was resuspended in 20 volumes of […] Hepes buffer (pH 7.2 at 23° C.) containing 130 mM NaCl, […] KCl, […] MgCl2, […] EDTA, 5 mg/mL bovine albumin, and bacitracin (0.25 mg/mL).
In saturation studies, cerebral cortical membranes were incubated at 23° C. for 120 minutes in a final volume of 500 μL of Hepes incubation buffer (pH 7.2) together with 0.2-20 nM tritiated-pentagastrin (Amersham International, England).
In the displacement experiments, membranes were incubated with a single concentration (2 nM) of iigand, together with increasing concentrations (10^-11 to […]) of competitive test compound. In each case, the nonspecific binding was defined as that persisting in the presence of the unlabeled octapeptide CCK26-33 (10^-6 M).
Following incubation, radioactivity bound to membranes was separated from that free in solution by rapid filtration through Whatman GF/B filters and washed three times with 4 mL of ice cold Tris-HCl buffer. Filters from samples incubated with tritiated-pentagastrin were placed in polyethylene vials with 4 mL of scintillation cocktail, and the radioactivity was estimated by liquid scintillation spectrometry (efficiency 47-52%).
The specific binding to CCK receptor sites was defined as the total bound tritiated-pentagastrin minus the amount of tritiated-pentagastrin bound in the presence of 10^-6 octapeptide, CCK26-33.
Saturation curves for specific tritiated-pentagastrin binding to mouse cortical membranes were analyzed by the methods of Scatchard (Ann. New York Acad. Sci. 51:660-672, 1949, and Hill (J. Physiol. 40:IV-VIII, 1910, to provide estimates for the maximum number of binding sites (Bmax) and the equilibrium dissociation constant (Ka).
In displacement experiments, inhibition curves were analyzed by either logit-log plots or the iterative curve fitting computer program ALLFIT (DeLean, Munson and Redbard, 1978) to provide estimates of the IC50 and nH (apparent Hill coefficient) values). (IC50 values were defined as the concentration of test compound required to produce 50% inhibition of specific binding.)
The inhibition constant (Ki) of the test compound was then calculated according to the Cheng-Prusoff equation: [formula] where [L] is the concentration of radiolabel and Ka is the equilibrium dissociation constant.

In the case of `C[C@](Cc1c[nH]c2ccccc12)(NC(=O)OC1C2CC3CC(C2)CC1C3)C(=O)N[C@H](CC(=O)NCCCC(=O)O)Cc1ccccc1` (stereo partly drawn) [Compound 11l, Butanoic acid, 4-[[3-[[3-(1H-indol-3-yl)-2-methyl-1-oxo-2-[[(tricyclo[3.3.1.1^3,7]dec-2-yloxy)carbonyl]amino]propyl]amino]-1-oxo-4-phenylbutyl]amino]-, [R-(R*,S*)]], the Ki was determined as 10.6 ± 0.12 nM. Consider `C[C@](Cc1c[nH]c2ccccc12)(NC(=O)OC1C2CC3CC(C2)CC1C3)C(=O)N[C@@H](Cc1ccccc1)C(=O)NCC(=O)O` (stereo partly drawn) [Compound 6j, Glycine, N-[2-methyl-N-[(tricyclo[3.3.1.1^3,7]dec-2-yloxy)carbonyl]-D-tryptophyl]-L-phenylalanyl-], for which the Ki was found to be 7.41 ± 1.04 nM.

In the case of `C[C@](Cc1c[nH]c2ccccc12)(NC(=O)OC1C2CC3CC(C2)CC1C3)C(=O)N[C@@H](Cc1ccccc1)C(=O)N[C@@H](CC(=O)O)C(=O)O` (stereo partly drawn) [Compound 6h, L-Aspartic acid, N-[N-[α-methyl-N-[(tricyclo[3.3.1.1^3,7]dec-2-yloxy)carbonyl]-D-tryptophyl]-L-phenylalanyl]], the inhibition constant Ki stood at 1170 nM. As to `C[C@](Cc1c[nH]c2ccccc12)(NC(=O)OC1C2CC3CC(C2)CC1C3)C(=O)N[C@H](CC(=O)NCCC(=O)O)Cc1ccccc1` (stereo partly drawn) [Compound 11a, β-Alanine, N-[3-[[3-(1H-indol-3-yl)-2-methyl-1-oxo-2-[[(tricyclo[3.3.1.1^3,7]dec-2-yloxy)carbonyl]amino]propyl]amino]-1-oxo-4-phenylbutyl]-, [R-(R*,S*)]], the Ki came to 9.44 nM. Consider `CCOC(=O)CCCNC(=O)C[C@H](Cc1ccccc1)NC(=O)[C@@](C)(Cc1c[nH]c2ccccc12)NC(=O)OC1C2CC3CC(C2)CC1C3` (stereo partly drawn) [Compound 10l], for which the Ki was determined as 66.4 nM. Consider `CCOC(=O)CNC(=O)C[C@H](Cc1ccccc1)NC(=O)[C@@](C)(Cc1c[nH]c2ccccc12)NC(=O)OC1C2CC3CC(C2)CC1C3` (stereo partly drawn) [Compound 10k, Glycine, N-[3-[[3-(1H-indol-3-yl)-2-methyl-1-oxo-2-[[(tricyclo[3.3.1.1^3,7]dec-2-yloxy)carbonyl]amino]propyl]amino]-1-oxo-4-phenylbutyl]-, ethyl ester, [R-(R*,S*)]-], for which the inhibition constant Ki is 17.9 nM. For the compound `C[C@](Cc1c[nH]c2ccccc12)(NC(=O)OC1C2CC3CC(C2)CC1C3)C(=O)N[C@H](CC(=O)NCC(=O)O)Cc1ccccc1` (stereo partly drawn) [Compound 11k], the inhibition constant Ki worked out at 4.4 ± 0.6 nM. Under `C[C@](Cc1c[nH]c2ccccc12)(NC(=O)OC1C2CC3CC(C2)CC1C3)C(=O)N[C@@H](Cc1ccccc1)C(=O)NCCC(=O)O` (stereo partly drawn) [Compound 6a, β-Alanine, N-[N-[α-methyl-N-[(tricyclo[3.3.1.1^3,7]-dec-2-yloxy)carbonyl]-D-tryptophyl]-L-phenylalanyl]] stands 27.9 ± 4.1 nM; under `COC(=O)CCCCCNC(=O)[C@H](Cc1ccccc1)NC(=O)[C@@](C)(Cc1c[nH]c2ccccc12)NC(=O)OC1C2CC3CC(C2)CC1C3` (stereo partly drawn) [Compound 5d, L-Phenylalaninamide, α-methyl-N-[(tricyclo[3.3.1.1^3,7]dec-2-yloxy)carbonyl]-D-tryptophyl-N-(6-methoxy-6-oxohexyl)], 173 nM; under `C[C@](Cc1c[nH]c2ccccc12)(NC(=O)OC1C2CC3CC(C2)CC1C3)C(=O)N[C@@H](Cc1ccccc1)C(=O)N[C@@H](CCC(=O)O)C(=O)O` (stereo partly drawn) [Compound 6i, L-Glutamic acid, N-[N-[α-methyl-N-[(tricyclo[3.3.1.1^3,7]dec-2-yloxy)carbonyl]-D-tryptophyl]-L-phenylalanyl]], 1520 nM.

Turning to `COC(=O)CCNC(=O)C[C@H](Cc1ccccc1)NC(=O)[C@@](C)(Cc1c[nH]c2ccccc12)NC(=O)OC1C2CC3CC(C2)CC1C3` (stereo partly drawn) [Compound 10a, β-Alanine, N-[3-[[3-(1H-indol-3-yl)-2-methyl-1-oxo-2-[[(tricyclo[3.3.1.1^3,7]dec-2-yloxy)carbonyl]amino]propyl]amino]-1-oxo-4-phenylbutyl]-, methyl ester, [R-(R*,S*)]], the inhibitory constant (Ki) amounted to 21.2 ± 5.4 nM. As for `COC(=O)CC[C@H](NC(=O)[C@H](Cc1ccccc1)NC(=O)[C@@](C)(Cc1c[nH]c2ccccc12)NC(=O)OC1C2CC3CC(C2)CC1C3)C(=O)OC` (stereo partly drawn) [Compound 5f], the figure is 110 nM.

As usually defined, the Ki is the equilibrium dissociation constant of an inhibitor or competing ligand from its target.
